For the first experiment, the target named is T1, Nox4 (Homo sapiens, UniProt Q9NPH5).
T1 construct: Plasmids encoding full-length human cDNAs for Nox1 (pcDNA3.1-hNox1), NOXO1 (pcDNA3.1-hNOXO1), NOXA1 (pCMVsport 6-hNOXA1), p47phox (pCMV-Tag4A-hp47) and Nox4 (pcDNA3-hNox4); expressed in transfected cells; host or cells: COS-22 (COS-7 stably expressing human p22phox), transient transfection with pcDNA3.1/Hygro-hNox4
T1 sequence (Q9NPH5 1-578): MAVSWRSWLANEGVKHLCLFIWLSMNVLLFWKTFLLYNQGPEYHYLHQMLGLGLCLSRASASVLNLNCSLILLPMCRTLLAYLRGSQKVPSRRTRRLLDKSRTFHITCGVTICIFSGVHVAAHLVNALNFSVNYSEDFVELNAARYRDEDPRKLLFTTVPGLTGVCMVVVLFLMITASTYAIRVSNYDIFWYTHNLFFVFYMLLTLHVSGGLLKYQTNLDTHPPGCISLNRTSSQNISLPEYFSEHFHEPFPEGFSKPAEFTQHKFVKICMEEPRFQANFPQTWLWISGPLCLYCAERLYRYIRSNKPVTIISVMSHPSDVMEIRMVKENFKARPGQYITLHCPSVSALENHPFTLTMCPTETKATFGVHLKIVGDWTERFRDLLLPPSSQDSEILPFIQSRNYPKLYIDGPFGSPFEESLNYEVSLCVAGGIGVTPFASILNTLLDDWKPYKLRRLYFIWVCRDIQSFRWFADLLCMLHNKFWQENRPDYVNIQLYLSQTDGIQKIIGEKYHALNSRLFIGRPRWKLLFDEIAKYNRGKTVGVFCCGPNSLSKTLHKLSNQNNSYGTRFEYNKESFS
T1 sequence (P13498 2-195 partner limits assumed): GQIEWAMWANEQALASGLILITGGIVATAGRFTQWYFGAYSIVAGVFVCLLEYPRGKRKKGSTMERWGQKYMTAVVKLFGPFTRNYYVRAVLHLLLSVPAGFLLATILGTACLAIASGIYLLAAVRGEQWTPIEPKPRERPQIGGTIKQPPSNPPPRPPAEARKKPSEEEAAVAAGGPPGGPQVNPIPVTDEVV
The experiment is described as follows: Constitutive Nox4 activity in transiently transfected COS-Nox4 cells, Amplex Red assay. It is filed as cell-based. The following applies: COS-Nox4 cells. The source says:
Plasmids encoding full-length human cDNAs for Nox1 (pcDNA3.1-hNox1), NOXO1 (pcDNA3.1-hNOXO1), NOXA1 (pCMVsport 6-hNOXA1), p47phox (pCMV-Tag4A-hp47) and Nox4 (pcDNA3-hNox4) were kindly provided by Dr. David Lambeth (Emory University, Ga.). Plasmids encoding Nox1, NOXO1, or NOXA1 were transformed and amplified into Escherichia coli strain TOP10 (Invitrogen, Carlsbad, Calif.). Plasmids were purified using a QIAfilter plasmid purification kit (QIAGEN Inc., Valencia, Calif.). For human Nox4 expression, the BglII/NotI restriction fragment from the pcDNA3-hNox4 was subcloned into the plasmid pcDNA3.1/Hygro(−) (Invitrogen, Carlsbad, Calif.) to generate pcDNA3.1/Hygro-hNox4. The fragment sequence, in-frame insertion and orientation were validated by DNA sequencing after PCR amplification. pcDNA3.1/Hygro-hNox4 was amplified into Escherichia coli strain TOP10 and purified with a QIAfilter plasmid purification kit.
Cell transfection was carried out using Lipofectamine LTX and Plus reagent (Invitrogen, Carlsbad, Calif., USA), according to the manufacturer's instructions. COS-22 cells were transiently co-transfected with pcDNA 3.1-hNox1, pCMVsport 6-hNOXA1 and pcDNA3.1-hNoxO1 (COS-Nox1/NOXO1/NOXA1 cells) or with pcDNA3.1/Hygro-hNox4 (COS-Nox4 cells). Cells were used 24 hr after transfection. Adherent cells were harvested by incubating with 0.05% trypsin/EDTA for 5 min at 37° C. Following addition of DMEM/10% FBS to neutralize the trypsin, the cells were pelleted by centrifugation at 1100×g for 5 min at 4° C. and used for the experiments.
H2O2 production was quantified in intact COS-Nox4 cells by Amplex® Red. Briefly, COS-Nox4 cells (5×10^4 cells/ml) were re-plated into 384-well plate in assay buffer (25 mM Hepes, pH 7.4, containing 0.12 M NaCl, 3 mM KCl, 1 mM MgCl2). The cells were incubated in the presence or absence of drugs at 37° C. in assay buffer supplemented with 0.1 mM Amplex® Red, and 0.32 U/ml of horse radish peroxidase (HRP) for 15 min. Fluorescence measurements were made using a Biotek Synergy 4 Hybrid Multi-Mode Microplate Reader with a 530/25-excitation and a 590/35-emission filter. The reaction was monitored at 37° C. for 1 h. A standard curve of known H2O2 concentrations was included on each plate. Nox4 activity was obtained by calculating the rate of H2O2 production as RFU/min and then subtracting the equivalent value given by non-transfected COS-22 cells. Similarly, H2O2 production by Nox2 cells was also measured by Amplex® Red as described above but in the presence of 150 U/mL of SOD and the reaction was initiated by addition of 5 μM PMA. The rate of H2O2 production in this case was calculated as RFU/min after the subtraction of the equivalent value given by non-stimulated cells. Data are expressed as % of vehicle control.
All data are expressed as means±SEM. IC50 values were determined using the GraphPad Prism software (GraphPad Software, San Diego, Calif.) for non-linear regression three-parameters, with constrain values of 100 and 0 for top and bottom, respectively, and assumes a Hill slope of 1.
Consider `C=C(C)CC1NC2CC(C)(C)C1c1c(Br)cccc12` (racemic) [Compound 7, (±)-(1S,4R,9S)-5-Bromo-3,3-dimethyl-9-(2-methylallyl)-1,2,3,4-tetrahydro-1,4-(epimino-methano)-naphthalene], for which the “Nox4 inhibitory activity” value is “inactive”. As for `C=C(C)CC1NC2CC(C)(C)C1c1ccccc12` (racemic) [Compound 8, (±)-(1S,4R,9S)-3,3-Dimethyl-9-(2-methylallyl)-1,2,3,4-tetrahydro-1,4-(epiminomethano)-naphthalene], the “Nox4 inhibitory activity” value is “inactive”. For the compound `C=C(C)CC1C2c3c(Br)cccc3C(CC2(C)C)N1CCCCC` (racemic) [Compound 11g, (±)-(1S,4R,9S)-5-Bromo-3,3-dimethyl-9-(2-methylallyl-10-pentyl-1,2,3,4-tetrahydro-1,4-(epiminomethano)naphthalene], the “Nox4 inhibitory activity” value is “virtually no effect”. For the compound `C=C(C)CC1C2c3c(Br)cccc3C(CC2(C)C)N1Cc1cccs1` (racemic) [Compound 11h, (±)-(1S,4R,9S)-5-Bromo-3,3-dimethyl-9-(2-methylallyl)-10-(thiophen-2-ylmethyl)-1,2,3,4-tetrahydro-1,4-(epiminomethano)naphthalene], the “Nox4 inhibitory activity” value was “virtually no effect”.

The experiment is the same for the next values; noted with them: constitutive activity, transiently transfected COS-Nox4 cells, read-out: IC50 of ROS generation, Nox4 (Amplex Red assay).
With `C=C(C)CC1NC2CC(C)(C)C1c1c(Br)cccc12` (racemic) [Compound 7, (±)-(1S,4R,9S)-5-Bromo-3,3-dimethyl-9-(2-methylallyl)-1,2,3,4-tetrahydro-1,4-(epimino-methano)-naphthalene], the IC50 was over 100 µM. Turning to `C=C(C)CC1C2c3ccccc3C(CC2(C)C)N1Cc1cccc(F)c1` (racemic) [Compound 11a, (±)-(1S,4R,9S)-10-(3-Fluorobenzyl)-3,3-dimethyl-9-(2-methylallyl)-1,2,3,4-tetrahydro-1,4-(epiminomethano)naphthalene], the IC50 was over 100 µM. The same measure, in the same setting: in the case of `C=C(C)CC1C2c3c(Br)cccc3C(CC2(C)C)N1Cc1ccc2c(c1)OCO2` (racemic) [Compound 11d, (±)-(1S,4R,9S)-10-(Benzo[d][1,3]dioxol-5-ylmethyl)-5-bromo-3,3-dimethyl-9-(2-methylallyl)-1,2,3,4-tetrahydro-1,4-(epiminomethano)naphthalene] it was over 100 µM; in that of `C=C(C)CC1C2c3c(Br)cccc3C(CC2(C)C)N1Cc1cc(C)on1` (racemic) [Compound 11e, (±)-3-(1S,4R,9S)-5-Bromo-3,3-dimethyl-9-(2-methylallyl)-1,2,3,4-tetrahydro-1,4-(epimino-methano) naphthalen-10-yl)methyl)-5-methylisoxazole], over 100 µM; in that of `C=C(C)CC1C2c3c(Br)cccc3C(CC2(C)C)N1Cc1cccc(F)c1` (racemic) [Compound 11f, (±)-(1S,4R,9S)-5-Bromo-10-(3-fluorobenzyl)-3,3-dimethyl-9-(2-methylallyl)-1,2,3,4-tetrahydro-1,4-(epiminomethano)naphthalene], over 100 µM.

As to `C=C(C)CC1C2c3c(Br)cccc3C(CC2(C)C)N1CCCCC` (racemic) [Compound 11g, (±)-(1S,4R,9S)-5-Bromo-3,3-dimethyl-9-(2-methylallyl-10-pentyl-1,2,3,4-tetrahydro-1,4-(epiminomethano)naphthalene], the IC50 was over 100 µM. Take `C=C(C)CC1NC2CC(C)(C)C1c1c(-c3ccc(Cl)c(Cl)c3)cccc12` (racemic) [Compound 12a, (±)-(1S,4R,9S)-5-(3,4-Dichlorophenyl)-3,3-dimethyl-9-(2-methylallyl)-1,2,3,4-tetrahydro-1,4-(epiminomethano)naphthalene]: the IC50 was over 100 µM. On to `C=C(C)CC1C2c3c(-c4ccc(Cl)c(Cl)c4)cccc3C(CC2(C)C)N1CCCCC` (racemic) [Compound 12c], for which the IC50 is over 100 µM.

Regarding `CC(C)CC1NC2CC(C)(C)C1c1c(Br)cccc12` (racemic) [Compound 13], the IC50 was over 100 µM. `C=C(C)CC1C2c3c(Br)cccc3C(CC2(C)C)N1S(C)(=O)=O` (racemic) [Compound 14a, (±)-(1S,4R,9S)-5-Bromo-3,3-dimethyl-9-(2-methylallyl)-10-(methylsulfonyl)-1,2,3,4-tetrahydro-1,4-(epiminomethano)naphthalene]: the IC50 was over 100 µM.

The record behind these values is patent US10906876B2, “Tetrahydroisoquinolines as selective NADPH oxidase 2 inhibitors” (University of Pittsburgh—Of the Commonwealth System of …, priority 2013, dated 2021).
